Here are results for 25 compounds from patent US10399932B2, “Inhibitors of indoleamine-2,3-dioxygenase for the treatment of cancer” (BRISTOL-MYERS SQUIBB COMPANY, priority 2015, dated 2019).

This assay deals with human IDO1 (Homo sapiens, UniProt P14902). Nature of the assay: Assessment of human IDO-1 inhibitory activity in HEK cells (human IDO1/HEK293 cells, Ehrlich reagent, absorbance at 490 nm). Format: cell-based. The arrangement: expressed in transfected cells. The note with it: In Vitro Potency in the HEK Human IDO-1 Cellular Assay. In short, it runs like this: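 Stable human IDO1-expressing HEK293 cells treated with compound for 20 h at 37 °C in phenol red-free RPMI/10% FBS. Stopped with 0.2% TCA (final) and heated 30 min at 50 °C; supernatant mixed with Ehrlich reagent, absorbance read at 490 nm. IC50 normalised to DMSO (0%) and 500 nM reference standard (100% inhibition).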

Where only a bound is given, the exact number is not on record here.

For orientation: IC50 means the midpoint of a concentration-inhibition curve. A higher IC50 goes with lower potency.

human IDO1, sequence (P14902 whole entry): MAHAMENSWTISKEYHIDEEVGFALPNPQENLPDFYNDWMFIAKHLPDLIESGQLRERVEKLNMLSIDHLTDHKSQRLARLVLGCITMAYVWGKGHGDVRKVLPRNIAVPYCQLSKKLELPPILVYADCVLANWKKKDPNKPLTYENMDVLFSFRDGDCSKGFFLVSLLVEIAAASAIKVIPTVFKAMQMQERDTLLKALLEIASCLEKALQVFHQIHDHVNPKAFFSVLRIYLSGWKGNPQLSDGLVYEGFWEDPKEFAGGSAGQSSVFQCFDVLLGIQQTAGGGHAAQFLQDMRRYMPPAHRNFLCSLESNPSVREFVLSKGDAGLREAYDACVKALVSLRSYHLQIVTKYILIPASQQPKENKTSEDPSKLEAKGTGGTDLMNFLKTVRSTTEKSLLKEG

In turn, `COCC(CC(=O)O)c1cc(F)c(N(CC(C)C)C2CCCCC2)c(NC(=O)Nc2ccc(Cl)cc2F)c1` (single isomer, unassigned) [Example 1164, 3-(3-(3-(4-chloro-2-fluorophenyl)ureido)-4-(cyclohexyl(isobutyl)amino)-5-fluorophenyl)-4-methoxybutanoic acid] registered an IC50 of less than 0.005 µM.
Take `CCOc1ccc(NC(=O)Nc2cc(C(COC)CC(=O)O)cc(F)c2N(CC(C)C)C2CCCCC2)c(F)c1` (single isomer, unassigned) [Example 1165, 3-(4-(cyclohexyl(isobutyl)amino)-3-(3-(4-ethoxy-2-fluorophenyl)ureido)-5-fluorophenyl)-4-methoxybutanoic acid]: the IC50 was less than 0.005 µM.
`COCC(CC(=O)O)c1cc(F)c(N(CC(C)C)C2CCCCC2)c(NC(=O)Nc2ccc(Cl)cc2)c1` (single isomer, unassigned) [Example 1166, 3-(3-(3-(4-chlorophenyl)ureido)-4-(cyclohexyl(isobutyl)amino)-5-fluorophenyl)-4-methoxybutanoic acid] displayed an IC50 of less than 0.005 µM.
As for `CCOc1ccc(CC(=O)Nc2cc(C(COC)CC(=O)O)cc(F)c2N(CC(C)C)C2CCCCC2)cc1` (single isomer, unassigned) [Example 1173, 3-(4-(cyclohexyl(isobutyl)amino)-3-(2-(4-ethoxyphenyl)acetamido)-5-fluorophenyl)-4-methoxybutanoic acid], the figure is less than 0.05 µM; as for `COCC(CC(=O)O)c1cc(F)c(N(CC(C)C)C2CCCCC2)c(NC(=O)Cc2ccc(C)cc2)c1` (single isomer, unassigned) [Example 1174, 3-(4-(cyclohexyl(isobutyl)amino)-3-fluoro-5-(2-(p-tolyl)acetamido)phenyl)-4-methoxybutanoic acid], less than 0.05 µM.
The compound `COCC(CC(=O)O)c1cc(F)c(N(CC(C)C)C2CCCCC2)c(NC(=O)Cc2ccc(Cl)cc2F)c1` (single isomer, unassigned) [Example 1175, 3-(3-(2-(4-chloro-2-fluorophenyl)acetamido)-4-(cyclohexyl(isobutyl)amino)-5-fluorophenyl)-4-methoxybutanoic acid] displayed a half-inhibitory concentration (IC50) of less than 0.05 µM.
Then `COCC(CC(=O)O)c1cc(F)c(N(CC(C)C)CC(C)C)c(NC(=O)Cc2ccc(Cl)cc2F)c1` (single isomer, unassigned) [Example 1187, 3-(3-(2-(4-Chloro-2-fluorophenyl)acetamido)-4-(diisobutylamino)-5-fluorophenyl)-4-methoxybutanoic acid], with less than 0.005 µM; and `COCC(CC(=O)O)c1cc(F)c(N(CC(C)C)CC(C)C)c(NC(=O)Nc2cc(C)on2)c1` (single isomer, unassigned) [Example 1188, 3-(4-(Diisobutylamino)-3-fluoro-5-(3-(5-methylisoxazol-3-yl)ureido)phenyl)-4-methoxybutanoic acid], with less than 0.05 µM; and `COCC(CC(=O)O)c1cc(F)c(N(CC(C)C)CC(C)C)c(NC(=O)Nc2ccc(OC)cc2F)c1` (single isomer, unassigned) [Example 1189, 3-(4-(Diisobutylamino)-3-fluoro-5-(3-(2-fluoro-4-methoxyphenyl)ureido)phenyl)-4-methoxybutanoic acid], with less than 0.005 µM.
Then `CCOc1ccc(CC(=O)Nc2cc(C(COC)CC(=O)O)cc(F)c2N(CC(C)C)CC(C)C)cc1` (single isomer, unassigned) [Example 1193, 3-(4-(Diisobutylamino)-3-(2-(4-ethoxyphenyl)acetamido)-5-fluorophenyl)-4-methoxybutanoic acid], with less than 0.05 µM.
With `COCC(CC(=O)O)c1cc(F)c(N(CC(C)C)CC(C)C)c(NC(=O)Nc2ccc(Cl)cc2F)c1` (single isomer, unassigned) [Example 1195, 3-(3-(3-(4-Chloro-2-fluorophenyl)ureido)-4-(diisobutylamino)-5-fluorophenyl)-4-methoxybutanoic acid], the IC50 is less than 0.005 µM.
Then `CC(C)CN(c1ccc(C(CC(=O)O)C2CC2)cc1NC(=O)Nc1ccc(Cl)cc1F)C1CCOCC1` (single isomer, unassigned) [Example 1199 Enantiomer 2, 3-(3-(3-(4-Chloro-2-fluorophenyl)ureido)-4-(isobutyl(tetrahydro-2H-pyran-4-yl)amino)phenyl)-3-cyclopropylpropanoic acid], with less than 0.005 µM; and `Cc1cc(NC(=O)Nc2cc(C(CC(=O)O)C3CC3)ccc2N(CC(C)C)C2CCOCC2)no1` (single isomer, unassigned) [Example 1201 Enantiomer 2, 3-Cyclopropyl-3-(4-(isobutyl(tetrahydro-2H-pyran-4-yl)amino)-3-(3-(5-methylisoxazol-3-yl)ureido)phenyl)propanoic acid], with less than 0.05 µM.
As for `CCOc1ccc(NC(=O)Nc2cc(C(CC(=O)O)C3CC3)ccc2N(CC(C)C)C2CCOCC2)cc1` (single isomer, unassigned) [Example 1205 Enantiomer 2, 3-Cyclopropyl-3-(3-(3-(4-ethoxyphenyl)ureido)-4-(isobutyl(tetrahydro-2H-pyran-4-yl)amino)phenyl)propanoic acid], the IC50 is less than 0.05 µM.
As for `CC(C)CN(c1ccc(C(CC(=O)O)C2CC2)cc1NC(=O)Nc1cncnc1)C1CCOCC1` (single isomer, unassigned) [Example 1207 Enantiomer 2, 3-Cyclopropyl-3-(4-(isobutyl(tetrahydro-2H-pyran-4-yl)amino)-3-(3-(pyrimidin-5-yl)ureido)phenyl)propanoic acid], the figure is more than 0.05 µM; as for `COCC(CC(=O)O)c1ccc(N(CC(C)C)C2CCOCC2)c(NC(=O)Nc2ccc(OC(F)(F)F)cc2)c1` (single isomer, unassigned) [Example 1218, 3-(4-(Isobutyl(tetrahydro-2H-pyran-4-yl)amino)-3-(3-(4-(trifluoromethoxy)phenyl)ureido)phenyl)-4-methoxybutanoic acid], more than 0.05 µM.
As for `CCOc1ccc(NC(=O)Nc2cc(C(COC)CC(=O)O)ccc2N(CC(C)C)C2CCOCC2)cc1` (single isomer, unassigned) [Example 1219, 3-(3-(3-(4-Ethoxyphenyl)ureido)-4-(isobutyl(tetrahydro-2H-pyran-4-yl)amino)phenyl)-4-methoxybutanoic acid], the figure is more than 0.05 µM.
As for `COCC(CC(=O)O)c1ccc(N(CC(C)C)C2CCOCC2)c(NC(=O)Nc2cc(C)on2)c1` (single isomer, unassigned) [Example 1220, 3-(4-(Isobutyl(tetrahydro-2H-pyran-4-yl)amino)-3-(3-(5-methylisoxazol-3-yl)ureido)phenyl)-4-methoxybutanoic acid], the figure is more than 0.05 µM; as for `COCC(CC(=O)O)c1ccc(N(CC(C)C)C2CCCCC2)c(NC(=O)Nc2ccc(OC)cc2F)c1` (single isomer, unassigned) [Example 1239, 3-(4-(Cyclohexyl(isobutyl)amino)-3-(3-(2-fluoro-4-methoxyphenyl)ureido)phenyl)-4-methoxybutanoic acid], less than 0.005 µM; as for `COCC(CC(=O)O)c1ccc(N(CC(C)C)C2CCCCC2)c(NC(=O)Cc2ccc(C)cc2)c1` (single isomer, unassigned) [Example 1240, 3-(4-(Cyclohexyl(isobutyl)amino)-3-(2-(p-tolyl)acetamido)phenyl)-4-methoxybutanoic acid], less than 0.05 µM.
For `CCOc1ccc(CC(=O)Nc2cc(C(COC)CC(=O)O)ccc2N(CC(C)C)C2CCCCC2)cc1` (single isomer, unassigned) [Example 1242, 3-(4-(Cyclohexyl(isobutyl)amino)-3-(2-(4-ethoxyphenyl)acetamido)phenyl)-4-methoxybutanoic acid], the IC50 was less than 0.05 µM.
As for `COCC(CC(=O)O)c1ccc(N(CC(C)C)C2CCCCC2)c(NC(=O)Cc2ccc(Cl)cc2F)c1` (single isomer, unassigned) [Example 1246, 3-(3-(2-(4-Chloro-2-fluorophenyl)acetamido)-4-(cyclohexyl(isobutyl)amino)phenyl)-4-methoxybutanoic acid], the figure is less than 0.005 µM.
Take `Cc1ccc(CC(=O)Nc2cc(C(CC(=O)O)C3CC3)ccc2N(CC(C)C)C2CCCCC2)cc1` (single isomer, unassigned) [Example 1249, 3-(4-(Cyclohexyl(isobutyl)amino)-3-(2-(p-tolyl)acetamido)phenyl)-3-cyclopropylpropanoic acid]: the IC50 was less than 0.005 µM.
`CCOc1ccc(CC(=O)Nc2cc(C(CC(=O)O)C3CC3)ccc2N(CC(C)C)C2CCCCC2)cc1` (single isomer, unassigned) [Example 1250, 3-(4-(Cyclohexyl(isobutyl)amino)-3-(2-(4-ethoxyphenyl)acetamido)phenyl)-3-cyclopropylpropanoic acid] registered an IC50 of less than 0.005 µM.
As for `Cc1cc(CC(=O)Nc2cc(C(CC(=O)O)C3CC3)ccc2N(CC(C)C)C2CCCCC2)no1` (single isomer, unassigned) [Example 1252, 3-(4-(Cyclohexyl(isobutyl)amino)-3-(2-(5-methylisoxazol-3-yl)acetamido)phenyl)-3-cyclopropylpropanoic acid], the figure is less than 0.05 µM.
